*1 amine or outer side, *2 acyl side, *3 side chain or, on linkers, in order; H or OH if unused. Where a SMILES comes first, the peptide text is derived from it. Bridges are numbered along the chain shown (N, C = ends). Roman numbers before positions name the chains, in order. [ ]: non-standard residue; d: D form. Actinocin(9to1) = Cc1c2oc3c(C)ccc(C(=O)[*:1])c3nc-2c(C(=O)[*:2])c(N)c1=O; NMeV = CN[C@H](C(=O)O)C(C)C; Sar = CNCC(=O)O
Columns and labels:
Assay type in all cases: cell-based, human
[1] = system: SEQ ID NO:1 in HCT116 and A549 cells; assay: SEQ ID NO:1 expression (qPCR, Western Blot) after drug treatment, wild-type p53 cells; conditions: cells with wild-type p53 (HCT116 and A549); Doxorubicin 1 μM, Actinomycin D 1 nM, Nutlin-3a 10 μM
Protocol: (§1) FIG. 10. SEQ ID NO: 1 is induced by genotoxic stress in a p53-dependent manner. HCT116, HCT116 p53KO, A549 and BxPC3 were treated with Doxorubicin (1 μM) or Actinomycin D (1 nM) and Nutlin-3a (10 μM). SEQ ID NO: 1 transcriptional levels were measured by qPCR in A549 and HCT116 (A) and in HCT116 p53KO and BxPC-3 (B). mRNA expression is shown relative to the not treated control. SEQ ID NO: 1 protein was measured by Western Blot analysis using a custom-made anti-SEQ ID NO: 1 antibody in A549 and HCT116 (A) and in HCT116 p53KO and BxPC-3 (B). (C) Immunostaining showing the upregulation of SEQ ID NO: 1 in A549 cells using a custom-made anti-SEQ ID NO: 1 antibody upon Doxorubicin treatment.
(§2) Doxorubicin, Actinomycin D and Nutlin-3a were purchased from Sigma-Aldrich. Doxorubicin was used at 1 μM, Actinomycin D was used at […] and Nutlin-3a was used at 10 μM in drug treatment experiments.
(§3) Total RNA was extracted with Trizol® and treated with TURBO™ DNase following provider's recommendations. 1 μg of RNA was retrotranscribed using iScript™ cDNA Synthesis Kit (BioRad). Gene expression was analysed by quantitative real time PCR using PowerUp SYBR Green Master Mix (Thermo Fisher Scientific) in the 7900HT Fast Real-Time PCR System (Applied Biosystems). Cycle threshold (Ct) values were normalized to GAPDH.
(§4) Cells pellets (4-5*10^6 cells) were homogenized in medium-salt lysis buffer (150 mM NaCl, 50 mM Tris pH 8, 1% NP40 and protein inhibitors cocktail). 50 μg of protein was loaded per lane in a 12% acrylamide gel and electrophoresed in Tris-Glycine SDS Running Buffer. The following antibodies were used: Anti-HA-Tag (Abcam, 1:5000), Anti-p53 (Santa Cruz, 1:1000), Anti-p21 (Thermo Fisher, 1:1000), Anti-GAPDH (Thermo Fisher, 1:5000).

[2] = system: SEQ ID NO:1 in HCT116 p53KO and BxPC-3 cells; assay: SEQ ID NO:1 expression (qPCR, Western Blot) after drug treatment, p53 altered cells; conditions: p53 status altered: HCT116 p53KO, BxPC-3 (mutant p53); Doxorubicin 1 μM, Actinomycin D 1 nM, Nutlin-3a 10 μM
Protocol: as §1, §2, §3, §4

[3] = system: SEQ ID NO 3 in HCT116; assay: SEQ ID NO: 3 mRNA levels by RT-qPCR after drug treatment in HCT116; conditions: Nutlin3a 10 μM 48 h, Doxorubicin 1 μM 24 h
Protocol: FIG. 25. […] (A) HCT116 and HCT116 p53KO cells were treated with MDM2 inhibitor Nutlin3a (10 μM) during 48 h. […] SEQ ID NO: 3 mRNA levels were tested by RT-qPCR. mRNA levels are presented relative to GAPDH reference gene. Bars represent average of n=3 technical replicates±SD.
as §2, §3

[4] = system: SEQ ID NO 3 in HCT116 p53 KO; assay: SEQ ID NO: 3 mRNA levels by RT-qPCR after drug treatment in HCT116 p53 knock-out; conditions: Nutlin3a 10 μM 48 h, Doxorubicin 1 μM 24 h
Protocol: FIG. 25. […] (A) HCT116 and HCT116 p53KO cells were treated with MDM2 inhibitor Nutlin3a (10 μM) during 48 h. SEQ ID NO: 3 transcriptional levels were tested by RT-qPCR. mRNA levels are normalized to untreated control (B) HCT116 and HCT116 p53KO cells were treated with genotoxic agent Doxorubicin (1 μM) during 24 h. SEQ ID NO: 3 mRNA levels were tested by RT-qPCR. mRNA levels are presented relative to GAPDH reference gene. Bars represent average of n=3 technical replicates±SD.
as §2, §3

Cc1c2oc3c(C)ccc(C(=O)N[C@@H]4C(=O)N[C@H](C(C)C)C(=O)N5CCC[C@H]5C(=O)N(C)CC(=O)N(C)[C@@H](C(C)C)C(=O)O[C@@H]4C)c3nc-2c(C(=O)N[C@@H]2C(=O)N[C@H](C(C)C)C(=O)N3CCC[C@H]3C(=O)N(C)CC(=O)N(C)[C@@H](C(C)C)C(=O)O[C@@H]2C)c(N)c1=O [Actinomycin D] (I: T[dV]P[Sar][NMeV] / II: T[dV]P[Sar][NMeV]; ester I:1-I:C, II:1-II:C; linker I:N-II:N via Actinocin(9to1))
expression of SEQ ID NO:1 (mRNA and protein levels) [1]: transcriptional and translational upregulation | expression of SEQ ID NO:1 (mRNA and protein levels) [2]: do not shown the same response

COc1cccc2c1C(=O)c1c(O)c3c(c(O)c1C2=O)C[C@@](O)(C(=O)CO)C[C@@H]3O[C@H]1C[C@H](N)[C@H](O)[C@H](C)O1 [Doxorubicin]
expression of SEQ ID NO:1 (mRNA and protein levels) [1]: transcriptional and translational upregulation | expression of SEQ ID NO:1 (mRNA and protein levels) [2]: do not shown the same response | SEQ ID NO 3 transcriptional levels [3]: upregulated | SEQ ID NO 3 transcriptional levels [4]: upregulation was impaired

COc1ccc(C2=N[C@@H](c3ccc(Cl)cc3)[C@@H](c3ccc(Cl)cc3)N2C(=O)N2CCNC(=O)C2)c(OC(C)C)c1 [Nutlin-3a]
expression of SEQ ID NO:1 (mRNA and protein levels) [1]: transcriptional and translational upregulation | expression of SEQ ID NO:1 (mRNA and protein levels) [2]: do not shown the same response | SEQ ID NO 3 transcriptional levels [3]: upregulated | SEQ ID NO 3 transcriptional levels [4]: upregulation was impaired

Reference: US11858972B2, “Micropeptides and uses thereof” (FUNDACIÓ PRIVADA INSTITUT D'INVESTIGACIÓ ONCOLÒGICA DE VALL …, priority 2018, dated 2024)
